ChEMBL document CHEMBL3632549, “Targeting EGFR/HER2 tyrosine kinases with a new potent series of 6-substituted 4-anilinoquinazoline hybrids: Design, synthesis, kinase assay, cell-based assay, and molecular docking” (Bioorg Med Chem Lett, 2015)
pIC50: −log10 of the molar value.

Key:
[1] = target: Receptor tyrosine-protein kinase erbB-2 (Homo sapiens, UniProt P04626); assay: Inhibition of HER2 (unknown origin) after 120 mins by HotSpot assay
[2] = target: Epidermal growth factor receptor (Homo sapiens, UniProt P00533); assay: Inhibition of EGFR (unknown origin) after 120 mins by HotSpot assay
Chain of Epidermal growth factor receptor (P00533 whole entry): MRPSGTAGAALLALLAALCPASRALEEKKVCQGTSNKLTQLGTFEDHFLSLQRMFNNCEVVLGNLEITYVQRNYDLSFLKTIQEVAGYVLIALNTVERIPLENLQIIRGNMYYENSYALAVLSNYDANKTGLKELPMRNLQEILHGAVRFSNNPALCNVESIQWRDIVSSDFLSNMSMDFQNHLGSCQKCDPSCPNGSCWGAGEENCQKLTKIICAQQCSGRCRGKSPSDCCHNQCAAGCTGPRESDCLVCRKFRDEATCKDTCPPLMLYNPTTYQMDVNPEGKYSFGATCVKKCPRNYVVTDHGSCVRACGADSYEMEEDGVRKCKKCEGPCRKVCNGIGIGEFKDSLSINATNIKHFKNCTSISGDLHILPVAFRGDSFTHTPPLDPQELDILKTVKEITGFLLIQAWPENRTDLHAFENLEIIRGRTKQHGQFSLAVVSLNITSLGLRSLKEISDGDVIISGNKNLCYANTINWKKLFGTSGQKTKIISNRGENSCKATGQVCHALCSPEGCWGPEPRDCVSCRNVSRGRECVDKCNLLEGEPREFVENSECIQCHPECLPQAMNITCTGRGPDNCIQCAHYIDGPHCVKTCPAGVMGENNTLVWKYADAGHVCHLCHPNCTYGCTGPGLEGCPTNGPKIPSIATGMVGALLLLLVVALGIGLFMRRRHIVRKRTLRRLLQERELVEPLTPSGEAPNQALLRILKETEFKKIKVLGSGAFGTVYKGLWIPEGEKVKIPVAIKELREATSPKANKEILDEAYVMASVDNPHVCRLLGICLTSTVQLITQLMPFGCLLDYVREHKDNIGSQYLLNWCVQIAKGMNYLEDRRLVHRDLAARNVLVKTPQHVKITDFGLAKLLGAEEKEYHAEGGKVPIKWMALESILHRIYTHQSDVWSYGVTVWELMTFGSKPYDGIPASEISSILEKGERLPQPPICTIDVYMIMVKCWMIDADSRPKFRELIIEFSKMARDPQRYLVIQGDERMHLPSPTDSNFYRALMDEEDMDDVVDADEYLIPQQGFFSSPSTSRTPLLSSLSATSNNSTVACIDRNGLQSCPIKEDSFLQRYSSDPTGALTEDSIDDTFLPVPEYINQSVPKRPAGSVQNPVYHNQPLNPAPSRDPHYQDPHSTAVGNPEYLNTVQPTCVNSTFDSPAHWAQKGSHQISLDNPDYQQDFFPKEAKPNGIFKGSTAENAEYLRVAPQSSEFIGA

[3] = test system: BT-474; assay: Cytotoxicity against human BT474 cells expressing HER2 after 72 hrs by Cell Titer Glo assay; type: functional; details: BT-474, 72 h
[4] = Cytotoxicity against human L-132 cells after 48 hrs by MTT assay; type: cell-based; details: L132, 48 h
[5] = target: Focal adhesion kinase 1 (Homo sapiens, UniProt Q05397); assay: Inhibition of FAK (unknown origin) after 120 mins by HotSpot assay
[6] = target: Mitogen-activated protein kinase 14 (Homo sapiens, UniProt Q16539); assay: Inhibition of P38a (unknown origin) after 120 mins by HotSpot assay
Chain of Mitogen-activated protein kinase 14 (Q16539 whole entry): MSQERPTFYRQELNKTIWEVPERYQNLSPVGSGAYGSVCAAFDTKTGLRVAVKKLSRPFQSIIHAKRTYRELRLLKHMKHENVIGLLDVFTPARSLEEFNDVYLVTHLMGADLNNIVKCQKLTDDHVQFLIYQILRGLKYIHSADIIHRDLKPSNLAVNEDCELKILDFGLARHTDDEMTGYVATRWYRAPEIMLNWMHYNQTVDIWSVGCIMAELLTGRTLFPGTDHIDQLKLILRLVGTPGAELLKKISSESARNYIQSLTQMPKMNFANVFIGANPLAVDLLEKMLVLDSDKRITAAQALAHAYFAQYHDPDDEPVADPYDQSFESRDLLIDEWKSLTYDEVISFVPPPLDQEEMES

[7] = target: Vascular endothelial growth factor receptor 2 (Homo sapiens, UniProt P35968); assay: Inhibition of VEGFR2 (unknown origin) after 120 mins by HotSpot assay
[8] = target: Fibroblast growth factor receptor 1 (Homo sapiens, UniProt P11362); assay: Inhibition of FGFR1 (unknown origin) after 120 mins by HotSpot assay
Chain of Fibroblast growth factor receptor 1 (P11362 whole entry): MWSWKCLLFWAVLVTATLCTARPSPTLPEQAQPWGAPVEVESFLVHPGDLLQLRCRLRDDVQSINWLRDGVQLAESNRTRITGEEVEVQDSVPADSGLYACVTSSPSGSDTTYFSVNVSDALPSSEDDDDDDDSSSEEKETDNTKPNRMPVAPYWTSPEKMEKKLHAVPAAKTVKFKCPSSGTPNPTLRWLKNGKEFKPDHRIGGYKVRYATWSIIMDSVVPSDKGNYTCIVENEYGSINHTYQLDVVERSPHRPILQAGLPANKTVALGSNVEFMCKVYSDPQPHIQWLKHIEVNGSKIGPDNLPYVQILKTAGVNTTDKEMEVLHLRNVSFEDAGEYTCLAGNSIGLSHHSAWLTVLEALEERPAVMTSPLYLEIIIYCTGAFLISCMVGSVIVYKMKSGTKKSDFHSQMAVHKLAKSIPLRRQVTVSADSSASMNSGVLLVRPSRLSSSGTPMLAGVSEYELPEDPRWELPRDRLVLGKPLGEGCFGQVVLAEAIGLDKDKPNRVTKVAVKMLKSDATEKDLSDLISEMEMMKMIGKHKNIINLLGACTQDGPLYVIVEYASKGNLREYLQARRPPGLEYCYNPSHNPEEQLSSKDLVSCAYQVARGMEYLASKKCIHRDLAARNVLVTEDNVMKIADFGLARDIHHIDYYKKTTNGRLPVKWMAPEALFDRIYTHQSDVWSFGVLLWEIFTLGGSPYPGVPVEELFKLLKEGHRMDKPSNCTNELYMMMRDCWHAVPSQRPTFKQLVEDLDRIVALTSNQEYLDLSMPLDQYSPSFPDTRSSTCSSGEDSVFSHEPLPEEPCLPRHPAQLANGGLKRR

[9] = target: Tyrosine-protein kinase Lck (Homo sapiens, UniProt P06239); assay: Inhibition of LCK (unknown origin) after 120 mins by HotSpot assay
[10] = target: MAP kinase-activated protein kinase 2 (Homo sapiens, UniProt P49137); assay: Inhibition of MAPKAPK2 (unknown origin) after 120 mins by HotSpot assay
[11] = target: Cyclin-dependent kinase 2 (Homo sapiens, UniProt P24941); assay: Inhibition of CDK2 (unknown origin) after 120 mins by HotSpot assay
[12] = target: Insulin-like growth factor 1 receptor (Homo sapiens, UniProt P08069); assay: Inhibition of IGF1R (unknown origin) after 120 mins by HotSpot assay
Chain of Insulin-like growth factor 1 receptor (P08069 31-736 limits assumed): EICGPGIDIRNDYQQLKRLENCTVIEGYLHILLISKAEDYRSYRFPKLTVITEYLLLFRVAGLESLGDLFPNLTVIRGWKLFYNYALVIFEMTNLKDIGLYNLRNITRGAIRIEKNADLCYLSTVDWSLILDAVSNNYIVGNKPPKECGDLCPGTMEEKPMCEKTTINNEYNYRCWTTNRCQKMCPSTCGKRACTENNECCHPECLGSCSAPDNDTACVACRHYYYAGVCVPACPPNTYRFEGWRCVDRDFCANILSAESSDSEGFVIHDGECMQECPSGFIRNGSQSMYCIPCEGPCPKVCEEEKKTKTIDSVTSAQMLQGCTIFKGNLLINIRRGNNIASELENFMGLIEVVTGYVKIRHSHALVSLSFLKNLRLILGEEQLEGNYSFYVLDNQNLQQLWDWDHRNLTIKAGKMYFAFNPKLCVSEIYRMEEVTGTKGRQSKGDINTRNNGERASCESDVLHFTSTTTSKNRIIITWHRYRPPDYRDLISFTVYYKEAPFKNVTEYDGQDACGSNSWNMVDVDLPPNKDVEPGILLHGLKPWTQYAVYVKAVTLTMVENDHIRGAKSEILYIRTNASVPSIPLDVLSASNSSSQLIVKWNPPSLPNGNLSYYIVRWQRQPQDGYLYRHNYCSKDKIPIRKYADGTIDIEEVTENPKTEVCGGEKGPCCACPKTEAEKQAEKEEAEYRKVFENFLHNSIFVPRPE
Chain of Insulin-like growth factor 1 receptor (P08069 741-1367 limits assumed): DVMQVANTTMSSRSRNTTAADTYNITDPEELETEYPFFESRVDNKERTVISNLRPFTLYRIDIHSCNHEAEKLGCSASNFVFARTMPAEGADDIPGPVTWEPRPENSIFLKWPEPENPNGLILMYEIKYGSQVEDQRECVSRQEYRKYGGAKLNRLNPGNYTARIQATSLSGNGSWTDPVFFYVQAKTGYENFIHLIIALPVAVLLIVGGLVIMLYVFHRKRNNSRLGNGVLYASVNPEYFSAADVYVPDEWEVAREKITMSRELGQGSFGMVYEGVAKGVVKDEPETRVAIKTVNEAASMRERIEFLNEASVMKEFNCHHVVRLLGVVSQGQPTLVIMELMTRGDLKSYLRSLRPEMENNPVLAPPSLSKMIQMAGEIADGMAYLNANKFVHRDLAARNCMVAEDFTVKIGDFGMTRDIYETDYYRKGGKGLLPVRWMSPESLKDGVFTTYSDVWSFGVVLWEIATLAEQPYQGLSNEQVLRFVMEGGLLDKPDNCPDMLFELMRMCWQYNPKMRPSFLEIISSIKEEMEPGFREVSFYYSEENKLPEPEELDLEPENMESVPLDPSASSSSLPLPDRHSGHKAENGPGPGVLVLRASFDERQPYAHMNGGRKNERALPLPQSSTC

[13] = target: Hepatocyte growth factor receptor (Homo sapiens, UniProt P08581); assay: Inhibition of c-MET (unknown origin) after 120 mins by HotSpot assay

Chain of Receptor tyrosine-protein kinase erbB-2 (P04626 whole entry): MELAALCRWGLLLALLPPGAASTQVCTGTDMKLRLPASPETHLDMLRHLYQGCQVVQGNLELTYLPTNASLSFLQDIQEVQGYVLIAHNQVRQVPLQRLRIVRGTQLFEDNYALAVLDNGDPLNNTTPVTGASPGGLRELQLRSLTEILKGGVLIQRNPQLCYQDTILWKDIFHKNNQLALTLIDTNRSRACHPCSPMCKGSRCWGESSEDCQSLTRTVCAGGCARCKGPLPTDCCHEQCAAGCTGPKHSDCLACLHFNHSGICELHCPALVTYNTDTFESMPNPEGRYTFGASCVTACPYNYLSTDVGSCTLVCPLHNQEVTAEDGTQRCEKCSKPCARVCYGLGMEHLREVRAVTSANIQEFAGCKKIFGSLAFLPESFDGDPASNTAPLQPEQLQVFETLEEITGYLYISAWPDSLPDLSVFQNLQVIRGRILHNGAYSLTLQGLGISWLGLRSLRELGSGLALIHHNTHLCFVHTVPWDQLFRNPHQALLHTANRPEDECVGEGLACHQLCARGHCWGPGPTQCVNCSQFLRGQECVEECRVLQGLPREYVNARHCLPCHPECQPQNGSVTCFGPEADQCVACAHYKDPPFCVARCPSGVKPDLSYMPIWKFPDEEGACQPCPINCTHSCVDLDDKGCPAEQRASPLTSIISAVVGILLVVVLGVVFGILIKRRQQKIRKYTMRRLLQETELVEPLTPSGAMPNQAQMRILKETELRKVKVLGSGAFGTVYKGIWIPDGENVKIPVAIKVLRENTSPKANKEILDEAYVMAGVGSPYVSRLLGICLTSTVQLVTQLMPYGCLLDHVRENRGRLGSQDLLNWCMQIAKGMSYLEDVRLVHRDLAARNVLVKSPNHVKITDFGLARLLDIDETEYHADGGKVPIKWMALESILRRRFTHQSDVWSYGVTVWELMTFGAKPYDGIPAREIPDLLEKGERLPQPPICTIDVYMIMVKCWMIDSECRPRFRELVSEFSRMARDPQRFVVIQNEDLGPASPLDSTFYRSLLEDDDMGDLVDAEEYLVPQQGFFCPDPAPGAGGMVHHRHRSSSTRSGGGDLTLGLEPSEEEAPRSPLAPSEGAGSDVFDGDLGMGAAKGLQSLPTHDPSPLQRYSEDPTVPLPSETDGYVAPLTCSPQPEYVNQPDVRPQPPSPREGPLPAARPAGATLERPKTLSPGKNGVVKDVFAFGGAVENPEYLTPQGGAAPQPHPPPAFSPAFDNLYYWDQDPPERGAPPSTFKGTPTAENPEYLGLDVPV

CCOC(=O)C(=CNC(=O)Nc1ccc(C(=O)Nc2ccc3ncnc(Nc4ccc(F)c(Cl)c4)c3c2)cc1)C(=O)OCC
pIC50 [1]: < 5.00 | pIC50 [2]: 5.84

CS(=O)(=O)CCNCc1ccc(-c2ccc3ncnc(Nc4ccc(OCc5cccc(F)c5)c(Cl)c4)c3c2)o1 [LAPATINIB]
GI50 [3]: 0.93 µM

CCNC(=O)Nc1ccc2ncnc(Nc3ccc(Oc4cccc(C(F)(F)F)c4)c(Cl)c3)c2c1
pIC50 [1]: 6.20 | GI50 [3]: 3.55 µM | pIC50 [2]: 7.54

NC(=O)Nc1ccc2ncnc(Nc3ccc(Oc4cccc(C(F)(F)F)c4)c(Cl)c3)c2c1
pIC50 [1]: 7.11 | GI50 [3]: > 10 µM | pIC50 [2]: 8.40

CCNC(=O)Nc1ccc2ncnc(Nc3ccc(OCc4ccccn4)c(Cl)c3)c2c1
pIC50 [1]: 5.86 | pIC50 [4]: < 4.00 | GI50 [3]: 1.95 µM | pIC50 [2]: 6.64

CCOC(=O)C(=CNc1ccc2ncnc(Nc3ccc(Oc4cccc(C(F)(F)F)c4)c(Cl)c3)c2c1)C(=O)OCC
pIC50 [1]: 6.00 | pIC50 [2]: 7.64

CCNC(=O)Nc1ccc(C(=O)Nc2ccc3ncnc(Nc4ccc(F)c(Cl)c4)c3c2)cc1
pIC50 [1]: 6.07 | pIC50 [2]: 7.51

N#CC(C#N)=CNc1ccc2ncnc(Nc3ccc(Oc4ccc(Cl)c(Cl)c4)c(Cl)c3)c2c1
pIC50 [1]: < 5.00 | pIC50 [2]: < 5.00

NC(=O)Nc1ccc2ncnc(Nc3ccc(OCc4cccc(F)c4)c(Cl)c3)c2c1
pIC50 [1]: 6.54 | GI50 [3]: 4.72 µM | pIC50 [2]: 7.00

CCOC(=O)C(=CNc1ccc2ncnc(Nc3ccc(OCc4ccccn4)c(Cl)c3)c2c1)C(=O)OCC
pIC50 [1]: 5.48 | pIC50 [2]: 5.99

CC(=O)Nc1ccc2ncnc(Nc3ccc(OCc4ccccn4)c(Cl)c3)c2c1
IC50 [5]: Not Active | IC50 [6]: Not Active | IC50 [7]: Not Active | IC50 [8]: Not Active | pIC50 [9]: 5.91 | pIC50 [1]: 7.80 | IC50 [10]: Not Active | pIC50 [4]: < 4.00 | IC50 [11]: Not Active | IC50 [12]: Not Active | IC50 [13]: Not Active | GI50 [3]: 2.7 µM | pIC50 [2]: 8.52

CCOC(=O)C(=CNc1ccc2ncnc(Nc3ccc(Oc4ccc(Cl)c(Cl)c4)c(Cl)c3)c2c1)C(=O)OCC
pIC50 [1]: < 5.00 | pIC50 [2]: < 5.00

CCOC(=O)C(=CNc1ccc2ncnc(Nc3ccc(OCc4cccc(F)c4)c(Cl)c3)c2c1)C(=O)OCC
pIC50 [1]: 5.30 | pIC50 [2]: 6.09

N#CC(C#N)=CNc1ccc2ncnc(Nc3ccc(OCc4cccc(F)c4)c(Cl)c3)c2c1
pIC50 [1]: 5.57 | pIC50 [2]: 6.35

N#CC(C#N)=CNc1ccc2ncnc(Nc3ccc(OCc4ccccn4)c(Cl)c3)c2c1
pIC50 [1]: 5.10 | pIC50 [2]: 5.52

NC(=O)Nc1ccc(C(=O)Nc2ccc3ncnc(Nc4ccc(F)c(Cl)c4)c3c2)cc1
pIC50 [1]: 6.56 | pIC50 [2]: 8.05

CCNC(=O)Nc1ccc2ncnc(Nc3ccc(OCc4cccc(F)c4)c(Cl)c3)c2c1
pIC50 [1]: 6.90 | pIC50 [4]: < 4.00 | GI50 [3]: 1.82 µM | pIC50 [2]: 7.46

CCNC(=O)Nc1ccc2ncnc(Nc3ccc(Oc4ccc(Cl)c(Cl)c4)c(Cl)c3)c2c1
pIC50 [1]: < 5.00 | GI50 [3]: > 10 µM | pIC50 [2]: < 5.00

NC(=O)Nc1ccc2ncnc(Nc3ccc(Oc4ccc(Cl)c(Cl)c4)c(Cl)c3)c2c1
pIC50 [1]: 6.15 | GI50 [3]: 2.38 µM | pIC50 [2]: 6.27
